Reference: patent US9801901B2, “Alginate oligomers for use in overcoming multidrug resistance in bacteria” (priority 2009, dated 2017)
Converted amounts (≈) assume the structure as drawn. Read-outs that look alike come from different tables or passages of the source. Marks after values point to notes of the source that are not given here.

Tests used:
[1] = tested on: Pseudomonas aeruginosa MDR 301 from Poland (V2); assay: MIC assay, CAMHB with alginate oligomer, no visible growth; type: cell-based; conditions: Pseudomonas aeruginosa, Table 1, V2 MDR 301 PA, read-out: MIC
[2] = tested on: Pseudomonas aeruginosa (R22, PSA, V1); assay: MIC-assay, Mueller-Hinton broth with G-block alginate, 384-well, OD600
MDR Providencia stuartii = assay: MIC-assay, Mueller-Hinton broth with G-block alginate, 384-well, OD600 (Table 11); type: cell-based; conditions: Providencia stuartii (IR57 India, V7) MDR
From the text: (§1) Minimum inhibitory concentration (MICs) of different antibiotics for strains of E. coli and Providencia stuartii displaying MDR phenotypes in the presence of varying concentrations of OligoCF-5/20 (0-10%). (MIC values are expressed in μg ml^−1).

[3] = tested on: strains of E. coli displaying MDR phenotypes; assay: as above; type: cell-based; conditions: Escherichia coli, Escherichia coli (5702, Wales, V11) MDR
From the text: as §1

[4] = tested on: V10 (Egypt) Acinetobacter lwoffii; assay: MIC assay, CAMHB with alginate oligomer, no visible growth; type: cell-based; conditions: Table 5, V10 MDR Acin. lwoff
[5] = tested on: Acinetobacter lwoffii (6056, V22); assay: MIC-assay, Mueller-Hinton broth with G-block alginate, 384-well, OD600
[6] = tested on: Pseudomonas aeruginosa (MDR 301, PSA, V2); assay: as above; conditions: Pseudomonas aeruginosa, Table 8; V2; G-block (OligoCF-5/20) 10%
V22 6056 Acinetobacter = assay: MIC assay, CAMHB with alginate oligomer, no visible growth; type: cell-based, Acinetobacter lwoffii; conditions: Table 5, V22 MDR Acin. lwoff
[7] = tested on: strains of Klebsiella pneumoniae displaying MDR phenotypes; assay: MIC-assay, Mueller-Hinton broth with G-block alginate, 384-well, OD600 (Table 10); type: cell-based
From the text: Minimum inhibitory concentration (MICs) of different antibiotics for strains of Klebsiella pneumoniae displaying MDR phenotypes in the presence of varying concentrations of OligoCF-5/20 (0-10%). (MIC values are expressed in μg ml^−1).

[8] = tested on: Acinetobacter lwoffii (Egypt, V10); assay: MIC-assay, Mueller-Hinton broth with G-block alginate, 384-well, OD600
[9] = tested on: Acinetobacter baumannii MDR ACB from Libya (V4); assay: MIC assay, CAMHB with alginate oligomer, no visible growth; type: cell-based; conditions: for MIC: Acinetobacter baumannii, read-out: MIC
From the text: The study described in Example 1 was repeated with the following strains of bacteria and antibiotics as detailed in Tables 4, 5 and 6.
The study described in Example 1 was repeated with the following strains of Acinetobacter baumannii, antibiotics and M-block alginate oligomer in place of OligoG CF-5/20 as detailed in Table 7. The M-block oligomer is 100% M with a DPn of 15 to 18,

[10] = tested on: Staphylococcus aureus (MRSA) U50; assay: MIC-assay, Mueller-Hinton broth with G-block alginate, 384-well, OD600 (Table 12); type: cell-based; conditions: MRSA 1040s, U50 MDR
From the text: Minimum inhibitory concentration (MICs) of different antibiotics for strains of Streptococcus oralis and Staphylococcus aureus (MRSA) displaying MDR phenotypes in the presence of varying concentrations of OligoCF-5/20 (0-10%). (MIC values are expressed in μg ml^−1).

[11] = tested on: Acinetobacter baumannii (Egypt, V9); assay: MIC-assay, Mueller-Hinton broth with G-block alginate, 384-well, OD600
V11 5702 (Wales) E. coli = assay: MIC assay, CAMHB with alginate oligomer, no visible growth; type: cell-based; conditions: Table 5, V11 MDR E.coli
[12] = G-block (OligoCF-5/20) 0%, read-out: MIC
[13] = G-block (OligoCF-5/20) 2%, read-out: MIC
[14] = Table 9, G-block (OligoCF-5/20) 0%
[15] = Table 9, G-block (OligoCF-5/20) 2%
[16] = Table 9, G-block (OligoCF-5/20) 6%
[17] = Table 9, G-block (OligoCF-5/20) 10%

`C[C@H]1[C@H](NC(=O)/C(=N\OC(C)(C)C(=O)O)c2csc(N)n2)C(=O)N1S(=O)(=O)O` [Aztreonam] showed an MIC ([1]; OligoCF-5/20 0G) of 64 µg/mL (≈ 147 µM), an MIC ([1]; OligoCF-5/20 +2% G) of 16 µg/mL (≈ 36.7 µM) and an MIC ([1]; OligoCF-5/20 +6% G) of 8 µg/mL (≈ 18.4 µM). For the same compound, the MIC ([1]; OligoCF-5/20 +10% G) was 8 µg/mL (≈ 18.4 µM), the MIC ([2]; Table 8, G-block (OligoCF-5/20) 6%) was 0.0625 µg/mL (≈ 0.144 µM) and the MIC ([2]; Table 8, G-block (OligoCF-5/20) 10%) was 0.0312 µg/mL (≈ 0.0718 µM). It also gave an MIC (MDR Providencia stuartii; G-block (OligoCF-5/20) 0%) of over 1020 µg/mL, an MIC (MDR Providencia stuartii; G-block (OligoCF-5/20) 2%) of over 1020 µg/mL and an MIC (MDR Providencia stuartii; G-block (OligoCF-5/20) 6%) of over 1020 µg/mL. For the same compound, the MIC (MDR Providencia stuartii; G-block (OligoCF-5/20) 10%) was over 1020 µg/mL, the MIC [3, 12] was 256 µg/mL (≈ 588 µM) and the MIC [3, 13] was 256 µg/mL (≈ 588 µM). For the same compound, the MIC ([3]; G-block (OligoCF-5/20) 6%) was 128 µg/mL (≈ 294 µM), the MIC ([3]; G-block (OligoCF-5/20) 10%, read-out: MIC) was 64 µg/mL (≈ 147 µM) and the MIC ([4]; Acinetobacter lwoffii, OligoCF-5/20 0G, read-out: MIC) was 32 µg/mL (≈ 73.5 µM). The MIC ([4]; OligoCF-5/20 +2% G) was 16^† μg/ml, the MIC ([4]; OligoCF-5/20 +6% G) was 4^† μg/ml and the MIC ([4]; OligoCF-5/20 +10% G) was 1^† μg/ml. For the same compound, the MIC [5, 14] was 64 µg/mL (≈ 147 µM), the MIC [5, 15] was 32 µg/mL (≈ 73.5 µM) and the MIC [5, 16] was 16 µg/mL (≈ 36.7 µM). For the same compound, the MIC [5, 17] was 4 µg/mL (≈ 9.19 µM), the MIC [6] was 0.0625 µg/mL (≈ 0.144 µM) and the MIC (V22 6056 Acinetobacter; Acinetobacter, OligoCF-5/20 0G, read-out: MIC) was 256 µg/mL (≈ 588 µM). The MIC (V22 6056 Acinetobacter; OligoCF-5/20 +2% G) was 128^† μg/ml, the MIC (V22 6056 Acinetobacter; OligoCF-5/20 +6% G) was 64^† μg/ml and the MIC (V22 6056 Acinetobacter; OligoCF-5/20 +10% G) was 32^† μg/ml. For the same compound, the MIC ([7]; Klebsiella pneumoniae (5712, Wales, V12) MDR, G-block (OligoCF-5/20) 0%, read-out: MIC) was 4 µg/mL (≈ 9.19 µM), the MIC ([7]; Klebsiella pneumoniae (5712, Wales, V12) MDR, G-block (OligoCF-5/20) 2%, read-out: MIC) was 4 µg/mL (≈ 9.19 µM) and the MIC ([7]; Klebsiella pneumoniae (5712, Wales, V12) MDR, G-block (OligoCF-5/20) 6%, read-out: MIC) was 4 µg/mL (≈ 9.19 µM). For the same compound, the MIC ([7]; Klebsiella pneumoniae (5712, Wales, V12) MDR, G-block (OligoCF-5/20) 10%, read-out: MIC) was 4 µg/mL (≈ 9.19 µM), the MIC ([7]; Klebsiella pneumoniae (IR25, India, V6) MDR, G-block (OligoCF-5/20) 2%, read-out: MIC) was 256 µg/mL (≈ 588 µM) and the MIC ([7]; Klebsiella pneumoniae (IR25, India, V6) MDR, G-block (OligoCF-5/20) 6%) was 128 µg/mL (≈ 294 µM). The MIC ([7]; Klebsiella pneumoniae (IR25, India, V6) MDR, G-block (OligoCF-5/20) 10%, read-out: MIC) was 64 µg/mL (≈ 147 µM), the MIC ([7]; Klebsiella pneumoniae (K3, India, V8) MDR, G-block (OligoCF-5/20) 2%, read-out: MIC) was 256 µg/mL (≈ 588 µM) and the MIC ([7]; Klebsiella pneumoniae (K3, India, V8) MDR, G-block (OligoCF-5/20) 6%) was 128 µg/mL (≈ 294 µM). The MIC ([7]; Klebsiella pneumoniae (K3, India, V8) MDR, G-block (OligoCF-5/20) 10%) was 128 µg/mL (≈ 294 µM), the MIC [8, 14] was 8 µg/mL (≈ 18.4 µM) and the MIC [8, 15] was 4 µg/mL (≈ 9.19 µM). The MIC [8, 16] was 2 µg/mL (≈ 4.59 µM), the MIC [8, 17] was 1 µg/mL (≈ 2.3 µM) and the MIC ([9]; Table 1, V4 ACB (Libya), OligoCF-5/20 0G) was 1020 µg/mL (≈ 2350 µM). The MIC ([9]; Table 1, V4 ACB (Libya), OligoCF-5/20 +2% G) was 512 µg/mL (≈ 1180 µM), the MIC ([9]; Table 1, V4 ACB (Libya), OligoCF-5/20 +6% G) was 256 µg/mL (≈ 588 µM) and the MIC ([9]; Table 1, V4 ACB (Libya), OligoCF-5/20 +10% G) was 128 µg/mL (≈ 294 µM). The MIC ([9]; Table 7, V4 MDR Acin baum (Libya), M-block oligomer 0M) was 2050 µg/mL (≈ 4700 µM), the MIC ([9]; Table 7, V4 MDR Acin baum (Libya), M-block oligomer +2% M) was 512 µg/mL (≈ 1180 µM) and the MIC ([9]; Table 7, V4 MDR Acin baum (Libya), M-block oligomer +6% M) was 256 µg/mL (≈ 588 µM). The MIC ([9]; Table 7, V4 MDR Acin baum (Libya), M-block oligomer +10% M) was 64 µg/mL (≈ 147 µM), the “effect in combination with alginate oligomers” value ([9]; Example 1, Acinetobacter baumannii isolate) was “more positive effect” and the MIC [10, 12] was 1020 µg/mL (≈ 2350 µM). It also gave an MIC [10, 13] of 1020 µg/mL (≈ 2350 µM), an MIC ([10]; G-block (OligoCF-5/20) 6%) of 512 µg/mL (≈ 1180 µM) and an MIC ([10]; G-block (OligoCF-5/20) 10%) of 512 µg/mL (≈ 1180 µM). For the same compound, the MIC [11, 14] was over 16 µg/mL, the MIC [11, 15] was over 16 µg/mL and the MIC [11, 16] was over 16 µg/mL. It also gave an MIC [11, 17] of over 16 µg/mL, an MIC (V11 5702 (Wales) E. coli; Escherichia coli, OligoCF-5/20 0G, read-out: MIC) of 256 µg/mL (≈ 588 µM) and an MIC (V11 5702 (Wales) E. coli; OligoCF-5/20 +2% G) of 256 µg/mL (≈ 588 µM). For the same compound, the MIC (V11 5702 (Wales) E. coli; OligoCF-5/20 +6% G) was 256 µg/mL (≈ 588 µM) and the MIC (V11 5702 (Wales) E. coli; OligoCF-5/20 +10% G) was 256 µg/mL (≈ 588 µM).
